From publication PMC5454964, “Isolation of Rice Bran Lectins and Characterization of Their Unique Behavior in Caco-2 Cells” (International Journal of Molecular Sciences, 2017)

Assays:
[1] = molecular target: T1, RBA1 (rice bran lectin 1) (Oryza sativa, UniProt Q0JF21); experiment: hemagglutination inhibition (rabbit erythrocytes); type: biochemical; conditions: pH 7.5, room temperature, 2-fold serial dilution
T1 construct: gene Os04g0173800; disulfide-linked heterodimer of 20- and 12-kDa subunits, 32-33 kDa
T1 sequence (Q0JF21 29-122): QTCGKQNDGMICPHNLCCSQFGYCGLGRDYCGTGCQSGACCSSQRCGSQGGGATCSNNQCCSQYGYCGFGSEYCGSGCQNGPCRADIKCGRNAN
T1 sequence (Q0JF21 123-201): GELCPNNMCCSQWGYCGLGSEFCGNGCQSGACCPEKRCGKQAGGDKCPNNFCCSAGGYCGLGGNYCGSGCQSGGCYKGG
Text: hemagglutination inhibition (rabbit erythrocytes) on RBA1 (rice bran lectin 1)

[2] = molecular target: T2, RBA2 (rice bran lectin 2) (Oryza sativa, UniProt Q0JF21); experiment: hemagglutination inhibition (rabbit erythrocytes); type: biochemical; conditions: pH 7.5, room temperature, 2-fold serial dilution
T2 construct: gene Os04g0173800; noncovalent homodimer of 12-kDa subunits, 25 kDa
T2 sequence (Q0JF21 123-201): T1 sequence (Q0JF21 123-201)
Text: hemagglutination inhibition (rabbit erythrocytes) on RBA2 (rice bran lectin 2)

[3] = molecular target: T3, bovine serum albumin (BSA) (Bos taurus, UniProt P02769); experiment: frontal affinity chromatography, immobilised protein; type: binding; conditions: pH 7.3, 25 °C, EDTA-PB
T3 construct: gene ALB
T3 sequence (P02769 25-607): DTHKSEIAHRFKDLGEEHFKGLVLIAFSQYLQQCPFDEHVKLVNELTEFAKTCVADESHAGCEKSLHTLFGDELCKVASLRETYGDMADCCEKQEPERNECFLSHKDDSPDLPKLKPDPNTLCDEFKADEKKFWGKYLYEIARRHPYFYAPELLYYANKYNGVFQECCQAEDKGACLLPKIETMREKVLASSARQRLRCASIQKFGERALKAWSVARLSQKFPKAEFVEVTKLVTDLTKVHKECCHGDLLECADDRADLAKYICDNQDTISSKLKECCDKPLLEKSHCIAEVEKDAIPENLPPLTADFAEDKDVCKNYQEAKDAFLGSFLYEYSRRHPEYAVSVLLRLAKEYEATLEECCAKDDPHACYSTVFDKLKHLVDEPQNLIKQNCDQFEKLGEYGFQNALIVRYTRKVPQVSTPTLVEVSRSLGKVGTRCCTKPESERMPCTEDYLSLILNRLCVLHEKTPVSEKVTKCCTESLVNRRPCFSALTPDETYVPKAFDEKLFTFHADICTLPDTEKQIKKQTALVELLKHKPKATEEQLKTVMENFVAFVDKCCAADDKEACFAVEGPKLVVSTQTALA

RBA1 [1]	RBA2 [2]	hemagglutination inhibition concentration [2]	Structure (SMILES)	V - V0 [3]
> 200 mM	0.8 mM		N[C@H]1C(O)O[C@H](CO)[C@H](O)[C@@H]1O (stereo partly drawn) [D-Galactosamine]	
0.78 mM	6.25 mM		CC(=O)N[C@H]1[C@H](O[C@H]2[C@H](O)[C@@H](NC(C)=O)C(O)O[C@@H]2CO)O[C@H](CO)[C@@H](O)[C@@H]1O (stereo partly shown) [Di-N-acetylchitobiose]	
	50 mM		CC(=O)N[C@H]1C(O)O[C@H](CO)[C@H](O)[C@@H]1O (stereo partly drawn) [N-Acetyl D-galactosamine]	
25 mM	50 mM		CC(=O)N[C@H]1C(O)O[C@H](CO)[C@@H](O)[C@@H]1O (stereo partly drawn) [N-Acetyl D-glucosamine]	

Continued, compound first:

Structure (SMILES)	RBA1 [1]	RBA2 [2]	hemagglutination inhibition concentration [2]	V - V0 [3]
N[C@H]1[C@H](O[C@H]2[C@H](O)[C@@H](N)C(O)O[C@@H]2CO)O[C@H](CO)[C@@H](O)[C@@H]1O (stereo partly shown) [Chitobiose]	100 mM			
N[C@H]1C(O)O[C@H](CO)[C@@H](O)[C@@H]1O (stereo partly drawn) [D-Glucosamine]	> 200 mM	3.1 mM		
CC(=O)N[C@H]1[C@H](O[C@H]2[C@H](O)[C@@H](NC(C)=O)[C@H](O[C@H]3[C@H](O)[C@@H](NC(C)=O)C(O)O[C@@H]3CO)O[C@@H]2CO)O[C@H](CO)[C@@H](O[C@@H]2O[C@H](CO)[C@@H](O[C@@H]3O[C@H](CO)[C@@H](O[C@@H]4O[C@H](CO)[C@@H](O)[C@H](O)[C@H]4NC(C)=O)[C@H](O)[C@H]3NC(C)=O)[C@H](O)[C@H]2NC(C)=O)[C@@H]1O (stereo partly shown) [Hexa-N-acetylchitohexaose]	0.04 mM		0.04 mM	
CC(=O)N[C@H]1[C@H](O[C@H]2[C@H](O)[C@@H](NC(C)=O)[C@H](O[C@H]3[C@H](O)[C@@H](NC(C)=O)C(O)O[C@@H]3CO)O[C@@H]2CO)O[C@H](CO)[C@@H](O[C@@H]2O[C@H](CO)[C@@H](O[C@@H]3O[C@H](CO)[C@@H](O)[C@H](O)[C@H]3NC(C)=O)[C@H](O)[C@H]2NC(C)=O)[C@@H]1O (stereo partly shown) [Penta-N-acetylchitopentaose]	0.02 mM	0.04 mM		
COC(=O)c1ccccc1-c1c2ccc(=N)cc-2oc2cc(N)ccc12 [Rhodamine 123]				BSA showed a similar interaction with RH.
CC(=O)N[C@H]1[C@H](O[C@H]2[C@H](O)[C@@H](NC(C)=O)C(O)O[C@@H]2CO)O[C@H](CO)[C@@H](O[C@@H]2O[C@H](CO)[C@@H](O[C@@H]3O[C@H](CO)[C@@H](O)[C@H](O)[C@H]3NC(C)=O)[C@H](O)[C@H]2NC(C)=O)[C@@H]1O (stereo partly shown) [Tetra-N-acetylchitotetraose]	0.04 mM		0.04 mM	
CC(=O)N[C@H]1[C@H](O[C@H]2[C@H](O)[C@@H](NC(C)=O)C(O)O[C@@H]2CO)O[C@H](CO)[C@@H](O[C@@H]2O[C@H](CO)[C@@H](O)[C@H](O)[C@H]2NC(C)=O)[C@@H]1O (stereo partly shown) [Tri-N-acetylchitotriose]	0.09 mM	0.39 mM		
